Assay results: patent US20120269739A1, “COMPOSITION, USE, AND PRESERVATION METHOD” (L'OREAL, priority 2009, published 2012)
Where two headings read alike, the source gives them in different places.

Experiments:
[1] = cited from earlier work
[2] = tested on: Aspergillus niger (An) ATCC 6275; assay: Challenge Test (artificial contamination) of cosmetic formula; format: cell-based; conditions: 22° C., chlorhexidine digluconate 0.3%, gingerone 2%
Excerpt: (§1) 5 pure microorganism cultures are used.

[3] = tested on: Candida albicans (Ca) ATCC 10231; assay: as above; format: cell-based; conditions: 22° C., chlorhexidine digluconate 0.3%, gingerone 2%; for Log reduction number after 7 days of contact, relative to the control, C. albicans: 1st formula O/W emulsion, Amt weight %: phenoxyethanol 1%, sodium benzoate 0.6%; for Log reduction number after 7 days of contact, relative to the control, Candida albicans: Amt weight %: sodium benzoate 0.6%
Excerpt: as §1

[4] = tested on: Enterococcus faecalis (Ef) ATCC 33186; assay: as above; format: cell-based; conditions: 22° C., chlorhexidine digluconate 0.3%, gingerone 2%
Excerpt: as §1

[5] = tested on: Escherichia coli (Ec) ATCC 8739; assay: as above; format: cell-based; conditions: 22° C., chlorhexidine digluconate 0.3%, gingerone 2%
Excerpt: as §1

[6] = tested on: Enterococcus faecalis (ATCC 33186); assay: Action kinetics in broth; format: cell-based; conditions: TS broth pH 5.2±0.3, 35° C., gingerone 2%, sodium benzoate 3.3%, chlorhexidine digluconate 2.2%
Protocol: (§2) The object of this example is to distinguish a compound according to the invention (gingerone) from the preserving agents conventionally used for protecting cosmetic formulations against microbial contamination, as regards the action kinetics.
(§3) The solutions are prepared in Trypto-casein-soya (TS) broth for the bacteria and in Sabouraud broth for the yeast. These solutions are adjusted to pH 5.2±0.3.
(§4) For each microbial solution, a growth control consisting of the appropriate culture medium alone is prepared.
(§5) The solutions in TS broth (36 ml) are inoculated separately with each of the bacteria (4 ml of microbial suspension) to a final content of 10^6 cfu/ml of mixture.
(§6) The inoculated samples are then placed in an incubator-agitator at 35° C.±2° C. Samples are taken after 6 hours, 24 hours, 48 hours, 72 hours and 7 days. Decimal dilutions are then prepared in Eugon LT100 broth. These dilutions are left for 30 minutes±15 minutes at 25° C. in order to neutralize the preserving agents, and are then double-seeded on the surface of Petri dishes containing Eugon LT100 agar.
(§7) The Petri dishes are then incubated in an oven at 35° C.±2° C. for a variable time depending on the strain concerned: • 48 hours; S. aureus; • 5 days: E. faecalis and C. albicans.
(§8) The results are expressed for each solution, each strain and each contact time as the number of cfu/ml of stock solution.

[7] = tested on: Staphylococcus aureus (ATCC 6538); assay: Action kinetics in broth; format: cell-based; conditions: TS broth pH 5.2±0.3, 35° C., gingerone 2%, sodium benzoate 3.3%, chlorhexidine digluconate 2.2%
Protocol: as §2, §3, §4, §5, §6, §7, §8

[8] = tested on: Candida albicans (ATCC 10231); assay: Action kinetics in broth; format: cell-based; conditions: Sabouraud broth pH 5.2±0.3, 35° C., gingerone 2%, sodium benzoate 3.3%, chlorhexidine digluconate 2.2%
Protocol: as §2, §3, §4
The solutions in Sabouraud broth (36 ml) are inoculated with the yeast (4 ml of suspension) to a final content of 10^6 cfu/ml.
as §6, §7, §8

[9] = tested on: Pseudomonas aeruginosa (Pa) ATCC 19429; assay: Challenge Test (artificial contamination) of cosmetic formula; conditions: 22° C., chlorhexidine digluconate 0.3%, gingerone 2%
Protocol: The antimicrobial efficacy of a compound of formula (I) was evaluated via the Challenge Test or artificial contamination method.
The method of the challenge test consists of an artificial contamination of the sample with collection microbial strains (bacteria, yeasts and moulds) and evaluation of the number of revivable microorganisms seven days after the inoculation.
The gram-negative bacteria (Escherichia coli and Pseudomonas aeruginosa), gram-positive bacteria (Enterococcus faecalis), yeast (Candida albicans) and mould (Aspergillus niger) are seeded in the subculturing medium, respectively, the day before the inoculation for the bacteria and the yeast, and five days before the inoculation for the mould.
After homogenizing the microbial suspension, 0.2 ml of inoculum is introduced into each pill bottle (the suspensions are used pure: between 1×10^8 and 3×10^8 cfu per ml) and the microbial suspension in the 20 g of product (=cosmetic formula) is homogenized thoroughly using a spatula.
The content of microorganisms present in the product corresponds after homogenization to a concentration of 10^6 microorganisms per gram of product, i.e. inoculation to 1% of an inoculum containing 10^8 microorganisms per ml.
After 7 days of contact time between the microorganisms and the product at 22° C.±2° C. and in darkness, decimal dilutions are performed and the number of revivable microorganisms remaining in the product is counted.

[10] = 1st formula O/W emulsion, Amt weight %: phenoxyethanol 1%, sodium benzoate 0.6%
[11] = 2nd formula lotion (pH 7 ± 0.2), Amt weight %: sodium benzoate 0.6%, phenoxyethanol 1%
[12] = 3rd formula O/W emulsion, Amt weight %: sodium benzoate 0.6%
[13] = 2nd formula lotion (pH 7 ± 0.2), phenoxyethanol 1%
[14] = contact time 0 hours, first series
[15] = contact time 0 hours, second series of Table 1
[16] = contact time 6 hours, first series
[17] = contact time 6 hours, second series of Table 1
[18] = contact time 24 hours, first series
[19] = contact time 24 hours, second series of Table 1
[20] = contact time 48 hours, first series
[21] = contact time 48 hours, second series of Table 1
[22] = contact time 72 hours, first series
[23] = contact time 72 hours, second series of Table 1
[24] = contact time 168 hours, first series
[25] = contact time 168 hours, second series of Table 1

Row | Compound | Log reduction number after 7 days of contact, relative to the control, A. niger [2, 10] [Log] | Log reduction number after 7 days of contact, relative to the control, A. niger [2, 11] [Log] | Log reduction number after 7 days of contact, relative to the control, A. niger [2, 12] [Log] | Log reduction number after 7 days of contact, relative to the control, C. albicans [3] [Log] | Log reduction number after 7 days of contact, relative to the control, Candida albicans [3, 13] [Log] | Log reduction number after 7 days of contact, relative to the control, Candida albicans ([3]; 3rd formula O/W emulsion) [Log] | Log reduction number after 7 days of contact, relative to the control, E. faecalis [4, 10] [Log] | Log reduction number after 7 days of contact, relative to the control, E. faecalis [4, 11] [Log] | Log reduction number after 7 days of contact, relative to the control, E. faecalis [4, 12] [Log] | Log reduction number after 7 days of contact, relative to the control, E. coli [5, 10] [Log] | Log reduction number after 7 days of contact, relative to the control, E. coli [5, 11] [Log] | Log reduction number after 7 days of contact, relative to the control, E. coli [5, 12] [Log] | Number of cfu counted after strain/solution contact time, Enterococcus faecalis ([6]; contact time 0 hours) | Number of cfu counted after strain/solution contact time, Enterococcus faecalis ([6]; contact time 6 hours) | Number of cfu counted after strain/solution contact time, Enterococcus faecalis ([6]; contact time 24 hours) | Number of cfu counted after strain/solution contact time, Enterococcus faecalis ([6]; contact time 48 hours) [cfu/ml] | Number of cfu counted after strain/solution contact time, Enterococcus faecalis ([6]; contact time 72 hours) [cfu/ml] | Number of cfu counted after strain/solution contact time, Enterococcus faecalis ([6]; contact time 168 hours) [cfu/ml] | Number of cfu counted after strain/solution contact time, Staphylococcus aureus [7, 14] | Number of cfu counted after strain/solution contact time, Staphylococcus aureus [7, 15] | other results
1 | COc1cc(C)ccc1O [2-methoxy-4-methylphenol] |  |  |  |  |  |  |  |  |  |  |  |  |  |  |  |  |  |  |  |  | pKa ([1]; value given in the literature): 10.27
2 | N=C(NCCCCCCNC(=N)NC(=N)Nc1ccc(Cl)cc1)NC(=N)Nc1ccc(Cl)cc1.O=C(O)[C@H](O)[C@@H](O)[C@H](O)[C@H](O)CO.O=C(O)[C@H](O)[C@@H](O)[C@H](O)[C@H](O)CO [Chlorhexidine digluconate] | 0.4 | 0.4 | 2.3 | 0.3 | 3 | >4 | 0.9 | 1.3 | 1.8 | >4 | 0.8 | >4 | 2.5 × 10^6 cfu/ml | <10 cfu/ml | <10 cfu/ml | <10 | <10 | <10 | 1.7 × 10^6 cfu/ml | 2.5 × 10^6 cfu/ml | Number of cfu counted after strain/solution contact time, Staphylococcus aureus [7, 16]: <10 cfu/ml; Number of cfu counted after strain/solution contact time, Staphylococcus aureus [7, 17]: <10 cfu/ml; Number of cfu counted after strain/solution contact time, Staphylococcus aureus [7, 18]: <10 cfu/ml; Number of cfu counted after strain/solution contact time, Staphylococcus aureus [7, 19]: <10 cfu/ml; Number of cfu counted after strain/solution contact time, Staphylococcus aureus [7, 20]: <10 cfu/ml; Number of cfu counted after strain/solution contact time, Staphylococcus aureus [7, 21]: <10 cfu/ml; Number of cfu counted after strain/solution contact time, Staphylococcus aureus [7, 22]: <10 cfu/ml; Number of cfu counted after strain/solution contact time, Staphylococcus aureus [7, 23]: <10 cfu/ml; Number of cfu counted after strain/solution contact time, Staphylococcus aureus [7, 24]: <10 cfu/ml; Number of cfu counted after strain/solution contact time, Staphylococcus aureus [7, 25]: <10 cfu/ml; Number of cfu counted after strain/solution contact time, Candida albicans ([8]; contact time 0 hours): 2.9 × 10^6 cfu/ml; Number of cfu counted after strain/solution contact time, Candida albicans ([8]; contact time 6 hours): <10 cfu/ml; Number of cfu counted after strain/solution contact time, Candida albicans ([8]; contact time 24 hours): <10 cfu/ml; Number of cfu counted after strain/solution contact time, Candida albicans ([8]; contact time 48 hours): <10 cfu/ml; Number of cfu counted after strain/solution contact time, Candida albicans ([8]; contact time 72 hours): <10 cfu/ml; Number of cfu counted after strain/solution contact time, Candida albicans ([8]; contact time 168 hours): <10 cfu/ml; Log reduction number after 7 days of contact, relative to the control, P. aeruginosa [9, 10]: 0.3 Log; Log reduction number after 7 days of contact, relative to the control, P. aeruginosa [9, 11]: 0.5 Log; Log reduction number after 7 days of contact, relative to the control, P. aeruginosa [9, 12]: 0 Log
3 | O=C([O-])c1ccccc1.[Na+] [Sodium benzoate] | 0.5 | <0.5 | 3 | 0 | <0.5 | >4 | 0.6 | 1.4 | >4 | 0.3 | 0.7 | >4 | 2.5 × 10^6 cfu/ml | 4.4 × 10^5 cfu/ml | 7.0 × 10^2 cfu/ml | <10 | <10 | <10 | 1.7 × 10^6 cfu/ml | 2.5 × 10^6 cfu/ml | Number of cfu counted after strain/solution contact time, Staphylococcus aureus [7, 16]: <10 cfu/ml; Number of cfu counted after strain/solution contact time, Staphylococcus aureus [7, 17]: <10 cfu/ml; Number of cfu counted after strain/solution contact time, Staphylococcus aureus [7, 18]: <10 cfu/ml; Number of cfu counted after strain/solution contact time, Staphylococcus aureus [7, 19]: <10 cfu/ml; Number of cfu counted after strain/solution contact time, Staphylococcus aureus [7, 20]: <10 cfu/ml; Number of cfu counted after strain/solution contact time, Staphylococcus aureus [7, 21]: <10 cfu/ml; Number of cfu counted after strain/solution contact time, Staphylococcus aureus [7, 22]: <10 cfu/ml; Number of cfu counted after strain/solution contact time, Staphylococcus aureus [7, 23]: <10 cfu/ml; Number of cfu counted after strain/solution contact time, Staphylococcus aureus [7, 24]: <10 cfu/ml; Number of cfu counted after strain/solution contact time, Staphylococcus aureus [7, 25]: <10 cfu/ml; Number of cfu counted after strain/solution contact time, Candida albicans ([8]; contact time 0 hours): 2.9 × 10^6 cfu/ml; Number of cfu counted after strain/solution contact time, Candida albicans ([8]; contact time 6 hours): <10 cfu/ml; Number of cfu counted after strain/solution contact time, Candida albicans ([8]; contact time 24 hours): <10 cfu/ml; Number of cfu counted after strain/solution contact time, Candida albicans ([8]; contact time 48 hours): <10 cfu/ml; Number of cfu counted after strain/solution contact time, Candida albicans ([8]; contact time 72 hours): <10 cfu/ml; Number of cfu counted after strain/solution contact time, Candida albicans ([8]; contact time 168 hours): <10 cfu/ml
4 | [H]/N=C(\N/C(=N/[H])NCCCCCCNC(=N)NC(=N)Nc1ccc(Cl)cc1)Nc1ccc(Cl)cc1 [chlorhexidine] |  |  |  |  |  |  |  |  |  |  |  |  |  |  |  |  |  |  |  |  | pKa ([1]; stated in the conclusion of Example 2, no source): 10.3
